Measured values as given in patent publication US20210283107A1, “Methods to Expand the Spectrum of Gram-Positive Antibiotics” (NORTH CAROLINA STATE UNIVERSITY, priority 2016, published 2021).
In brackets after ≈: the same amount, converted by molar mass.

What was measured:
[1] = tested on: AB5075; test: G. mellonella model infected with AB5075, survival; assay type: in vivo, Galleria mellonella
Protocol: Galleria mellonella larvae (Speedy Worm, Alexandria, Minn.) were used within ten days of shipment from the vendor. After reception of worms, larvae were kept in the dark at room temperature for at least 24 h before infection. Larvae weighing between 200 to 300 mg were used in the survival assay. Using a 10 μL glass syringe (Hamilton, Reno, Nev.) fitted with a 30 G needle (Exel International, St. Petersburg, Fl), 5 μL of the desired compound and concentration were injected into the last left proleg. After 2.5 h, a second 5 μL injection containing 6×10^5 CFU of Acinetobacter baumannii 5075 was injected into the second to last left proleg. Injected worms were left at room temperature in the dark while being assessed at 24 h intervals over 6 days. […] Experiment was repeated 7 times using 10 larvae per experimental group.

[2] = tested on: A. baumannii mutant AB1310; test: MIC against Tn-seq transposon mutant AB1310; assay type: cell-based; conditions: Acinetobacter baumannii
Protocol: (§1) During individual MIC screening, two mutants, AB522 and AB1310, were identified due to their increased sensitivity to the three macrolide antibiotics and vancomycin when compared to AB 5075 (Table 17).
(§2) Day Cultures (6 h) were subcultured to 5×10^5 CFU/mL in cation adjusted Mueller-Hinton broth (CAMHB). Aliquots (1 mL) were placed in culture tubes, and compound was added from 100 mM stock solutions, such that the compound concentration equaled the highest concentration tested (200 μM or 64 μg/mL). Samples were then aliquoted (200 μL) into the first row of wells of a 96-well plate, with all remaining wells being filled with 100 μL of initial bacterial subculture. The wells in row one were mixed five times before 100 μL was transferred to the following row (row two). Row two was then mixed five times, and 100 μL was transferred to row three. This processed was repeated until the final row had been mixed. This process provided a serial dilution of the compound. Plates were covered with Glad Press n'Seal and were incubated under stationary conditions at 37° C. for 16 hours. MIC values were recorded as the lowest concentration at which no bacterial growth was observed.

[3] = tested on: A. baumannii strain 5075 (AB5075); test: Macrolide sensitization / antibiotic resensitization: antibiotic MIC in presence of compound (broth microdilution); assay type: cell-based, Acinetobacter baumannii; conditions: Acinetobacter baumannii, read-out: MIC (μg/mL) of the antibiotic
Protocol: A. baumannii 5075 was plated on LB agar, then grown in CAMHB for 6-8 h and this culture was used to inoculate fresh CAMHB (5×10^5 CFU/mL). The resulting suspension was aliquoted (5 mL) into culture tubes and compound, from 100 mM DMSO stock, was added. One aliquot was not treated (control). 1 mL of each sample was transferred to a new culture tube and antibiotic was added. Rows 2-12 of a 96-well microtiter plate were filled with 100 μL/well from the remaining 4 mL bacterial subcultures, allowing the concentration of compound to be kept uniform throughout the antibiotic dilution procedure. Samples containing antibiotic were aliquoted (200 μL) into the corresponding first row wells of the microtiter plate. Row 1 wells were mixed 6 to 8 times then 100 μL was withdrawn and transferred to row 2. Row 2 wells were mixed 6 to 8 times, followed by a 100 μL transfer from row 2 to row 3. This procedure was repeated to serially dilute the rest of the rows of the microtiter plate, with the exception of the final row, to which no antibiotic was added (to check for growth of bacteria in the presence of compound alone). The microtiter plate was then covered, placed in a covered damp plastic container and incubated under stationary conditions at 37° C. After 16-18 hrs minimum inhibitory concentration (MIC) values were recorded as the lowest concentration of antibiotic at which there was no visible growth of bacteria. Experiments were carried out in duplicate each time and repeated at least twice.
The difference in antibiotic MIC between the control (no compound) sample, and the samples containing each compound was recorded as the fold-reduction.
(§3) Day Cultures (6 h) were subcultured to 5×10^5 CFU/mL in cation adjusted Mueller-Hinton broth (CAMHB). […] One milliliter of the resulting solution was aliquoted into a separate culture tube and was dosed with antibiotic so that the resulting concentration was the highest desirable concentration to be tested. Bacteria treated with antibiotic alone were used as a control. Row one of a 96-well plate was filled with 200 μL of the antibiotic/compound solution, and the remaining rows were filled with 100 μL of the remaining 4 mL bacterial subculture. The wells in row one were mixed five times before 100 μL was transferred to the following row (row two). Row two was then mixed five times, and 100 μL was transferred to row three. This process was repeated until the second to last row had been reached. The last row is left unexposed to antibiotic in order to serve as a negative control. The antibiotic only treated bacteria was plated by aliquoting 200 μL of the treated bacteria into row one and filling the remaining rows with untreated bacteria from the original bacteria subculture. The rows were mixed in the same way as described above. Plates were covered with Glad Press n'Seal and were incubated under stationary conditions at 37° C. for 16 hours. MIC values were recorded as the lowest concentration at which no bacterial growth was observed. Fold reductions were determined by comparison of the compound treated wells with the antibiotic only treated control wells.

[4] = tested on: A. baumannii mutant AB522; test: MIC against Tn-seq transposon mutant AB522; assay type: cell-based; conditions: Acinetobacter baumannii
Protocol: as §1, §2

[5] = tested on: A. baumannii strain 3560; test: Potentiation of clarithromycin and vancomycin against clinical isolate; assay type: cell-based, Acinetobacter baumannii; conditions: antibiotic alone
Protocol: (§4) As previously stated, A. baumannii 5075 was chosen for these studies due to its virulence and multidrug resistance, but to further analyze the activity of our lead compounds, 23 A. baumannii clinical isolates obtained from Walter Reed Army Institute of Research (WRAIR) were tested.
as §3

[6] = tested on: A. baumannii strain 5197; test: as above; assay type: cell-based, Acinetobacter baumannii; conditions: antibiotic alone
Protocol: as §4, §3

[7] = tested on: A. baumannii strain 4991; test: as above; assay type: cell-based, Acinetobacter baumannii; conditions: antibiotic alone
Protocol: as §4, §3

[8] = tested on: A. baumannii strain 5711; test: as above; assay type: cell-based, Acinetobacter baumannii; conditions: antibiotic alone
Protocol: as §4, §3

[9] = tested on: A. baumannii strain 5001; test: as above; assay type: cell-based, Acinetobacter baumannii; conditions: antibiotic alone
Protocol: as §4, §3

[10] = tested on: A. baumannii strain 5256; test: as above; assay type: cell-based, Acinetobacter baumannii; conditions: antibiotic alone
Protocol: as §4, §3

[11] = tested on: A. baumannii strain 4269; test: as above; assay type: cell-based, Acinetobacter baumannii; conditions: antibiotic alone
Protocol: as §4, §3

[12] = tested on: A. baumannii strain 4878; test: as above; assay type: cell-based, Acinetobacter baumannii; conditions: antibiotic alone
Protocol: as §4, §3

[13] = tested on: A. baumannii strain 4957; test: as above; assay type: cell-based, Acinetobacter baumannii; conditions: antibiotic alone
Protocol: as §4, §3

[14] = tested on: A. baumannii strain 4025; test: as above; assay type: cell-based, Acinetobacter baumannii; conditions: antibiotic alone
Protocol: as §4, §3

[15] = tested on: A. baumannii strain 3785; test: as above; assay type: cell-based, Acinetobacter baumannii; conditions: antibiotic alone
Protocol: as §4, §3

[16] = tested on: A. baumannii strain 4456; test: as above; assay type: cell-based, Acinetobacter baumannii; conditions: antibiotic alone
Protocol: as §4, §3

[17] = tested on: A. baumannii strain 4795; test: as above; assay type: cell-based, Acinetobacter baumannii; conditions: antibiotic alone
Protocol: as §4, §3

[18] = tested on: A. baumannii strain 4490; test: as above; assay type: cell-based, Acinetobacter baumannii; conditions: antibiotic alone
Protocol: as §4, §3

[19] = tested on: A. baumannii strain 4498; test: as above; assay type: cell-based, Acinetobacter baumannii; conditions: antibiotic alone
Protocol: as §4, §3

[20] = tested on: A. baumannii strain 3806; test: as above; assay type: cell-based, Acinetobacter baumannii; conditions: antibiotic alone
Protocol: as §4, §3

[21] = tested on: A. baumannii strain 3927; test: as above; assay type: cell-based, Acinetobacter baumannii; conditions: antibiotic alone
Protocol: as §4, §3

[22] = tested on: A. baumannii strain 4052; test: as above; assay type: cell-based, Acinetobacter baumannii; conditions: antibiotic alone
Protocol: as §4, §3

[23] = tested on: A. baumannii strain 4027; test: as above; assay type: cell-based, Acinetobacter baumannii; conditions: antibiotic alone
Protocol: as §4, §3

[24] = tested on: A. baumannii strain 4026; test: as above; assay type: cell-based, Acinetobacter baumannii; conditions: antibiotic alone
Protocol: as §4, §3

[25] = tested on: A. baumannii strain 4448; test: as above; assay type: cell-based, Acinetobacter baumannii; conditions: antibiotic alone
Protocol: as §4, §3

[26] = tested on: A. baumannii strain 8967; test: as above; assay type: cell-based, Acinetobacter baumannii; conditions: antibiotic alone
Protocol: as §4, §3

[27] = tested on: A. baumannii strain 4857; test: as above; assay type: cell-based, Acinetobacter baumannii; conditions: antibiotic alone
Protocol: as §4, §3

Structure (SMILES)	MIC [2]	MIC [4]	MIC (μg/mL) of the antibiotic [6]	MIC (μg/mL) of the antibiotic [8]	MIC (μg/mL) of the antibiotic [14]	MIC (μg/mL) of the antibiotic [15]	MIC (μg/mL) of the antibiotic [19]	MIC (μg/mL) of the antibiotic [20]	MIC (μg/mL) of the antibiotic [23]	MIC (μg/mL) of the antibiotic [24]	MIC (μg/mL) of the antibiotic [26]	also measured
CO[C@H]1/C=C/O[C@@]2(C)Oc3c(C)c(O)c4c(O)c(c(/C=N/N5CCN(C)CC5)c(O)c4c3C2=O)NC(=O)/C(C)=C\C=C\[C@H](C)[C@H](O)[C@@H](C)[C@@H](O)[C@@H](C)[C@H](OC(C)=O)[C@@H]1C [rifampin, reference compound]	–	–	–	–	–	–	–	–	–	–	–	survival after 6 days ([1]; rifampin at 30 mg/kg, one injection): 64%
CN[C@H](CC(C)C)C(=O)N[C@H]1C(=O)N[C@@H](CC(N)=O)C(=O)N[C@H]2C(=O)N[C@H]3C(=O)N[C@H](C(=O)N[C@H](C(=O)O)c4cc(O)cc(O)c4-c4cc3ccc4O)[C@H](O)c3ccc(c(Cl)c3)Oc3cc2cc(c3O[C@@H]2O[C@H](CO)[C@@H](O)[C@H](O)[C@H]2O[C@H]2C[C@](C)(N)[C@H](O)[C@H](C)O2)Oc2ccc(cc2Cl)[C@H]1O [Vancomycin, reference compound]	64 mg/L (≈ 44.2 µM)	64 mg/L (≈ 44.2 µM)	512 µg/mL	>512 µg/mL	512 µg/mL	512 µg/mL	512 µg/mL	256 µg/mL	512 µg/mL	512 µg/mL	512 µg/mL	MIC [3]: 256 µg/mL; MIC (μg/mL) of the antibiotic [5]: 256 µg/mL; MIC (μg/mL) of the antibiotic [7]: 512 µg/mL; MIC (μg/mL) of the antibiotic [9]: 512 µg/mL; MIC (μg/mL) of the antibiotic [10]: 512 µg/mL; MIC (μg/mL) of the antibiotic [11]: 512 µg/mL; MIC (μg/mL) of the antibiotic [12]: 512 µg/mL; MIC (μg/mL) of the antibiotic [13]: 512 µg/mL; MIC (μg/mL) of the antibiotic [16]: 512 µg/mL; MIC (μg/mL) of the antibiotic [17]: >512 µg/mL; MIC (μg/mL) of the antibiotic [18]: 256 µg/mL; MIC (μg/mL) of the antibiotic [21]: 256 µg/mL; MIC (μg/mL) of the antibiotic [22]: >512 µg/mL; MIC (μg/mL) of the antibiotic [25]: 512 µg/mL
CC[C@H]1OC(=O)[C@H](C)[C@@H](O[C@H]2C[C@@](C)(OC)[C@@H](O)[C@H](C)O2)[C@H](C)[C@@H](O[C@@H]2O[C@H](C)C[C@H](N(C)C)[C@H]2O)[C@](C)(OC)C[C@@H](C)C(=O)[C@H](C)[C@@H](O)[C@]1(C)O [Clarithromycin, reference compound]	2 mg/L (≈ 2.67 µM)	2 mg/L (≈ 2.67 µM)	64 µg/mL	64 µg/mL	64 µg/mL	64 µg/mL	64 µg/mL	16 µg/mL	64 µg/mL	64 µg/mL	16 µg/mL	survival after 6 days ([1]; clarithromycin alone at 25 mg/kg): 1%; MIC (μg/mL) of the antibiotic [27]: 64 µg/mL
